Laboratory results: publication PMC7222207, “Characterization of a CholesteroNitrone (ISQ-201), a Novel Drug Candidate for the Treatment of Ischemic Stroke” (Antioxidants, 2020)
Read-outs that look alike come from different tables or passages of the source.

What was measured:
[1] = test system: transient middle cerebral artery occlusion; assay: Transient focal cerebral ischemia (tMCAO), infarct size by TTC stain; format: in vivo, male C57BL/6 mice; conditions: mice, 48 h after tMCAO
[2] = Pharmacokinetics study, plasma concentration after intravenous bolus (LC-MS/MS); format: in vivo, male Wistar rats; conditions: rat; for clearance / Vd / k el / half-life / Cmax / AUC(0-t) / C0: male, Wistar; for clearance / Vd / k el / half-life / Cmax / AUC(0-t) / C0 / Clast: plasma; for clearance / Vd / k el / Cmax / AUC(0-t) / C0 / Clast: mean ± SE n=6; for clearance: read-out: Cl (terminal clearance) (converted); for Vd: read-out: Vd (volume of distribution); for k el: read-out: kel (terminal elimination constant) (converted); for half-life: iv; for AUC(0-t): read-out: AUC0–8h; for C0: read-out: C0 (initial concentration)
Method: For the study of the variation of the concentration of ISQ-201 in plasma, male Wistar rats (10–12 weeks, Charles River) were randomly divided into three groups (n = 6 per group) and treated intravenously, as a bolus with different concentrations of ISQ-201 (0.07, 0.25, and 1.0 mg/kg, respectively). Plasma samples were taken 0.25, 0.5, 1, 2, 4, and 8 h after the administration and the ISQ-201 concentration was determined by LC–MS/MS analysis. A noncompartmental analysis was performed for the determination of the toxicokinetic parameters, using the Phoenix 64 WinNonlin program (version 8.0). This study was carried out by Swiss BioQuant AG (Reinach, Switzerland).
Study of the variation of ISQ-201 concentration after a single bolus intravenous administration was carried out with different doses of ISQ-201 (0.07, 0.25, and 1.00 mg/kg). Plasma samples were collected 0.25, 0.5, 1, 2, 4, and 8 h after administration, and the ISQ-201 concentration was determined through LC/MS–MS (Figure 7). Pharmacokinetic parameters were calculated through a non-compartmental analysis (Table 2).

[3] = test system: transient forebrain ischemia, cortex and hippocampal CA1; assay: Global cerebral ischemia (4VO), dose-response curve of neuroprotection; format: in vivo, male Wistar rats; conditions: for EC50 of neuroprotection from dose-response curve: 5 days of reperfusion
Method: Transient forebrain ischemia was induced in adult male Wistar rats (10–12 weeks, Charles River) by the standard four-vessel occlusion model (4VO) described previously. Briefly, both vertebral arteries were irreversibly occluded by electrocoagulation under anesthesia, with a mixture of atropine, ketamine, and diazepam (0.25, 62.5, and 5 mg/kg, respectively) delivered through intraperitoneal injection. After 24 h, ischemia was induced by carotid occlusion with atraumatic clips, for 15 min, and then the clips were removed from the carotid arteries to allow reperfusion. Body temperature was maintained at 37 °C during the surgical procedure. The animals were studied after 5 days of reperfusion (R5d) after which they were sacrificed. Sham control animals were prepared in the same way, without carotid occlusion. We performed a power analysis (http://www.biomath.info/power/ttest.htm) to determine the sample size. Significance level and statistical power were set at 0.05 and 0.8 (80%), respectively, which afforded a sample size of […] subjects per group. The treatments were administered with concealed allocation, and in randomized order, according to a computer-generated randomization program. […]
Figure 2 Dose-response curve of ISQ-201. Ischemic animals were treated with a vehicle or ISQ-201 (range 0.01–0.1 mg/kg) by an intravenous injection, at the onset of reperfusion after global cerebral ischemia, and ISQ-201 effect was evaluated by assessing the neuronal death at 5 days of reperfusion (R5d). […] Fluoro-Jade-positive dead neurons were visualized by fluorescence microscopy (in green) in the hippocampal CA1 (CA1) and cortical (C) regions (images), and counted, as described in Materials and Methods (bar graph). (b) Brain sections as in (a) were used for apoptosis detection by TUNEL assay after fixation, and were visualized by fluorescence microscopy (in green) in the CA1 and C regions (images). TUNEL-positive cells were counted in the CA1 and C regions, as described in the Materials and Methods (bar graph). […]

Structure (SMILES): CC(C)[C@H]1CC[C@H]2[C@@H]3CCC4=C/C(=[N+](\C)[O-])CC[C@]4(C)[C@H]3CC[C@]12C [ISQ-201]
- infarct area in the brain vs vehicle ([1]; 0.05 mg/kg ip at onset of reperfusion): did not change
- reduction in lesion size with respect to vehicle-treated group ([1]; 0.1 mg/kg ip at onset of reperfusion): 21%
- clearance ([2]; iv bolus 0.07 mg/kg): 1.75 mL/min
- Vd ([2]; iv bolus 0.07 mg/kg): 0.364 ± 0.11 L
- k el ([2]; iv bolus 0.07 mg/kg): 8.81e-05 s⁻¹
- clearance ([2]; iv bolus 0.25 mg/kg): 0.923 mL/min
- Vd ([2]; iv bolus 0.25 mg/kg): 0.166 ± 0.027 L
- k el ([2]; iv bolus 0.25 mg/kg): 9.53e-05 s⁻¹
- clearance ([2]; iv bolus 1.00 mg/kg): 0.895 mL/min
- Vd ([2]; iv bolus 1.00 mg/kg): 0.3 ± 0.103 L
- k el ([2]; iv bolus 1.00 mg/kg): 7.94e-05 s⁻¹
- half-life ([2]; 0.07 mg/kg, iv bolus 0.07 mg/kg, mean ± SE n=6, read-out: t1/2 (half-life) (converted)): 1.66 ± 0.1 h
- half-life ([2]; 0.25 mg/kg, iv bolus 0.25 mg/kg, mean ± SE n=6, read-out: t1/2 (half-life) (converted)): 1.51 ± 0.12 h
- half-life ([2]; 1 mg/kg, iv bolus 1.00 mg/kg, mean ± SE n=6, read-out: t1/2 (half-life) (converted)): 2.2 ± 0.53 h
- half-life ([2]; iv bolus, 0.07–1.00 mg/kg, read-out: half-life): 1.5 to 2 h
- Cmax ([2]; iv bolus 0.07 mg/kg): 50.6 ± 7.4 ng/mL
- AUC(0-t) ([2]; iv bolus 0.07 mg/kg): 81.1 ± 9.5 ng·h/mL
- C0 ([2]; iv bolus 0.07 mg/kg): 74.6 ± 12.2 ng/mL
- Cmax ([2]; iv bolus 0.25 mg/kg): 330 ± 51.2 ng/mL
- AUC(0-t) ([2]; iv bolus 0.25 mg/kg): 477 ± 42 ng·h/mL
- C0 ([2]; iv bolus 0.25 mg/kg): 490 ± 80.2 ng/mL
- Cmax ([2]; iv bolus 1.00 mg/kg): 1210 ± 300 ng/mL
- AUC(0-t) ([2]; iv bolus 1.00 mg/kg): 2030 ± 429 ng·h/mL
- C0 ([2]; iv bolus 1.00 mg/kg): 1690 ± 424 ng/mL
- Clast ([2]; iv bolus 0.07 mg/kg): 1.53 ± 0.09 ng/mL
- Clast ([2]; iv bolus 0.25 mg/kg): 7.49 ± 0.75 ng/mL
- Clast ([2]; iv bolus 1.00 mg/kg): 42.03 ± 4.42 ng/mL
- Cmax and AUC0-8h relation to dose ([2]; iv bolus, whole studied range 0.07–1.00 mg/kg): linearly related to the dose
- EC50 of neuroprotection from dose-response curve ([3]; cortex, iv 0.01–0.1 mg/kg at reperfusion onset): 0.015 mg/kg
- EC50 of neuroprotection from dose-response curve ([3]; hippocampal CA1, iv 0.01–0.1 mg/kg at reperfusion onset): 0.025 mg/kg
- most effective dose in decreasing neuronal death and apoptosis ([3]; iv, doses 0.01–0.1 mg/kg, after 5 days of reperfusion): 0.05 mg/kg
